Test results published in PubChem BioAssay (NCI).
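Compound exposure: 48 hours, 5 concentrations, 96-well plates. The concentration for full growth arrest is given as TGI.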

Legend:
Experiment in all cases: inhibition of tumour cell growth, NCI panel, 48 h
[1] = test system: K-562 leukemia
[2] = test system: MOLT-4 leukemia
[3] = test system: SK-MEL-2 melanoma
[4] = test system: NCI/ADR-RES ovarian
[5] = test system: SK-MEL-28 melanoma
[6] = test system: UACC-62 melanoma
[7] = test system: RXF 393 renal
[8] = test system: SK-OV-3 ovarian
[9] = test system: SF-539 CNS
[10] = test system: SNB-19 CNS
[11] = test system: HOP-62 NSCLC
[12] = test system: OVCAR-8 ovarian
[13] = test system: PC-3 prostate
[14] = test system: HOP-92 NSCLC
[15] = test system: MDA-N
[16] = test system: NCI-H23 lung
[17] = test system: ACHN renal
[18] = test system: MDA-MB-231 breast
[19] = test system: UO-31 renal
[20] = test system: HT29 colon
[21] = test system: CAKI-1 renal
[22] = test system: SF-268 CNS
[23] = test system: U251 CNS
[24] = test system: OVCAR-3 ovarian
[25] = test system: NCI-H460 lung
[26] = test system: SW-620 colon
[27] = test system: DU-145 prostate
[28] = test system: NCI-H522 lung
[29] = test system: BT-549 breast
[30] = test system: UACC-257 melanoma
[31] = test system: COLO 205 colon
[32] = test system: KM12 colon
[33] = test system: HCT-15 colon
[34] = test system: MALME-3M melanoma
[35] = test system: IGROV1 ovarian
[36] = test system: SN12C renal
[37] = test system: EKVX NSCLC
[38] = test system: T-47D breast
[39] = test system: HCC-2998 colon
[40] = test system: SF-295 CNS
[41] = test system: 786-0 renal
[42] = test system: SR leukemia
[43] = test system: RPMI-8226 leukemia
[44] = test system: A549 NSCLC
[45] = test system: OVCAR-4 ovarian
[46] = test system: M14 melanoma
[47] = test system: CCRF-CEM leukemia
[48] = test system: MCF7 breast
[49] = test system: HL-60(TB) leukemia
[50] = test system: OVCAR-5 ovarian
[51] = test system: A498 renal
[52] = test system: MDA-MB-435
[53] = test system: HCT-116 colon
[54] = test system: NCI-H226 lung
[55] = test system: SNB-75 CNS
[56] = test system: LOX IMVI melanoma
[57] = test system: TK-10 renal
[58] = test system: SK-MEL-5 melanoma
[59] = test system: HS 578T breast

Measured: TGI

CC1(C)COC(c2ccccc2-c2ccccc2)=N1
> 100 µM: [1] | [2] | [3] | [4] | [5] | [6] | [7] | [8] | [9] | [10] | [11] | [12] | [13] | [14] | [15] | [16] | [17] | [18] | [19] | [20] | [21] | [22] | [23] | [24] | [25] | [26] | [27] | [28] | [29] | [30] | [31] | [32] | [33] | [34] | [35] | [36] | [37] | [38] | [39] | [40] | [41] | [42] | [43] | [44] | [45] | [46] | [47] | [48] | [49] | [50] | [51] | [52] | [53] | [54]

COC(=O)C1=CC(=O)OC1(OO)c1ccc(Br)cc1 (stereo unspecified)
> 100 µM: [1] | [2] | [3] | [4] | [5] | [55] | [56] | [6] | [7] | [8] | [9] | [10] | [12] | [13] | [14] | [15] | [16] | [17] | [18] | [57] | [19] | [20] | [21] | [58] | [23] | [24] | [25] | [26] | [27] | [28] | [29] | [30] | [31] | [32] | [33] | [34] | [35] | [36] | [37] | [38] | [39] | [40] | [41] | [42] | [44] | [45] | [46] | [47] | [48] | [49] | [50] | [52] | [53] | [54]

Nc1cnc(Nc2cccc3ccccc23)o1
> 10 µM: [1] | [3] | [4] | [5] | [55] | [56] | [6] | [7] | [8] | [9] | [10] | [11] | [12] | [13] | [15] | [16] | [17] | [18] | [57] | [19] | [20] | [21] | [58] | [22] | [23] | [24] | [25] | [26] | [27] | [28] | [30] | [31] | [32] | [33] | [34] | [35] | [59] | [36] | [37] | [38] | [39] | [40] | [41] | [44] | [45] | [46] | [47] | [48] | [49] | [51] | [52] | [53] | [54]
